Patent US20050169908A1, “Use of aerosolized antithrombin to treat acute lung injury” (priority 2004, published 2005)

Legend:
[1] = tested on: smoke inhalation injury followed by pneumonia; assay: Pulmonary gas exchange (PaO2/FiO2 ratio, pulmonary shunt fraction) after smoke inhalation and pneumonia in sheep; assay type: in vivo; settings: nebulized every 4 hrs, 24-h study; vs saline-treated group (FIG. 1B)
Method: Recombinantly produced ATIII was dissolved in saline (42 mg/ml). Female sheep (n=24) were used. After the 48 breaths of cotton smoke (<40° C.), P. aeruginosa (5×10^11 CFU) was instilled in the both lungs. All the animals were mechanically ventilated by 100% O2 (Tidal volume 15 ml/kg, 30 breaths/min, PEEP 5 cmH2O). […] No animals died during the study.
(§1) The Animal Care and Use Committee of The University of Texas Medical Branch approved the experiments reported in this manuscript. All animals were handled within the guidelines established by the American Physiological Society and the National Institutes of Health. Twenty four female sheep were surgically prepared for study under halothane anesthesia as previously described (9). After measurement of baseline cardiovascular data, sheep received a combination injury of smoke inhalation and bacteria instillation as previously described (3).
Briefly, P. aeruginosa (5×10^9/kg) was instilled intrabronchially after the cotton smoke exposure (4 sets of 12 breaths, <40° C.). […]
(§2) The statistical software StatView 5.0 (SAS Institute, Cary, N.C.) was used to perform the analysis. Data are expressed as means±SEM. Repeated measured analysis of variance (ANOVA) or ANOVA with Tuckey's post hoc test was used to compare data among the groups. […]

[2] = tested on: smoke inhalation injury followed by pneumonia; assay: Lung histopathology scores 24 h after smoke and bacterial challenge; assay type: in vivo, sheep; settings: vs saline control
Description: as §1
(§3) Briefly, P. aeruginosa (5×10^9/kg) was instilled intrabronchially after the cotton smoke exposure (4 sets of 12 breaths, <40° C.). After the smoke inhalation and bacterial instillation, animals were randomly assigned for the two treatment groups, ATIII nebulization group (n=6), argatroban-nebulization group (n=8), and saline nebulization control group (n=10). All animals were mechanically ventilated with 100% oxygen throughout the 24-h study (Tidal volume 12-15 ml/kg, 30 breaths/min, PEEP 7.5 cmH2O). Tidal volume was adjusted to maintain PaCO2 normal. The Ringer's lactate solution was injected in sufficient volume to prevent the hematocrit from rising. Initially, 2 ml/kg/h of Ringer's lactate was infused, and we adjusted the in rate up to 10 ml/kg/h based on the hematocrit levels.
(§4) Recombinant human antithrombin (rhAT) was dissolved in distilled water (250 mg/30 mL). Then, the ATIII solution was mixed with 60 mL saline and 15 mL of the mixed solution containing 41.7 mg ATIII was nebulized every 4 hrs. […] The control group received 15 ml saline nebulization as the same fashion. […]
(§5) A lung slice from the right lower lobe was histologically scored by a pathologist who was unaware of animal grouping (5). […] Airway obstruction by cast formation was also evaluated as previously described (3).
as §2

[3] = tested on: smoke inhalation injury followed by pneumonia; assay: Microscopic evaluation of airway obstruction by cast formation; assay type: in vivo, sheep
Description: as §1, §3
as §4, with “fashion. The solutions were nebulized by an ultrasonic nebulizer (Ultra-Neb99, DeVilbiss Co., Somerset, Pa.), which was connected to the tracheobronchial tree as shown previously (10). The size of the particles obtained by the nebulizer is reported less than 4 microns.” for “fashion.”
as §5

[4] = tested on: smoke inhalation injury followed by pneumonia; assay: Plasma nitrate/nitrite (NOx) levels; assay type: in vivo, sheep; settings: over 24 h; vs saline-treated group (FIG. 6)
Description: as §1
as §3, with “Initially, 2 ml/kg/h of Ringer's lactate was infused, and we adjusted the in rate up to 10 ml/kg/h based on the hematocrit levels.” left out
The concentration of NOx (total amount of nitric oxide metabolites) in plasma was measured with a chemiluminescent NO analyser (Antek, model 7020) as previously described (11).

P. aeruginosa = assay: Arterial blood culture for bacteremia; assay type: in vivo, sheep; settings: during the 24 h study; no statistical difference from saline-treated group
Description: as §1
as §3, with “levels. […]” for “levels.”

[5] = Blood counts (WBC, platelets) after injury; assay type: in vivo, sheep
Description: as §1, §3
Recombinant human antithrombin (rhAT) was dissolved in distilled water (250 mg/30 mL). Then, the ATIII solution was mixed with 60 mL saline and 15 mL of the mixed solution containing 41.7 mg ATIII was nebulized every 4 hrs. […] The control group received 15 ml saline nebulization as the same fashion. The solutions were nebulized by an ultrasonic nebulizer (Ultra-Neb99, DeVilbiss Co., Somerset, Pa.), which was connected to the tracheobronchial tree as shown previously (10). The size of the particles obtained by the nebulizer is reported less than 4 microns. The nebulization was started one hour after the insult and every 4 hrs thereafter.
Arterial blood was cultured to test the bacteremia (Septi-check, Becton Dickinson, Sparks, Md.). Heparinized blood samples were carefully withdrawn from the femoral artery catheter at baseline and at 3, 6, 12, and 24 hrs.

[6] = 24 h, vs saline treated group (FIG. 4)

In the case of CC1CNc2c(cccc2S(=O)(=O)N[C@@H](CCCNC(=N)N)C(=O)N2CC[C@@H](C)C[C@@H]2C(=O)O)C1 (stereo partly shown) [Argatroban], the “increase in pulmonary shunt fraction after the insult” value [1] is reported as “significantly less”, the hemorrhage score [2] is reported as “not higher but less” and the “individual histology scores in congestion, edema, inflammation, and hemorrhage (scale 0-4)” value [2] is reported as “almost the same scores as saline control”. The “total histology score (maximum 16)” value [2] was “did not attenuate”, the “airway obstruction in bronchi levels” value [3, 6] was “inhibited the obstruction significantly” and the “airway obstruction in bronchiole levels” value [3, 6] was “inhibited the obstruction significantly”. The “prevention of cast formation (airway obstruction), comparison of the two agents” value ([3]; argatroban vs rhAT) was “more effective in preventing cast formation than rhAT”, the “increase in plasma NOx levels” value [4] was “not a statistical difference” and the “animals with P. aeruginosa detected in arterial blood culture” value (P. aeruginosa) was 0%. For the same compound, the Platelets ([5]; 24 hrs after injury, Mean ± SE) was 297 ± 78 ×10^3/μL, the WBC ([5]; 24 hrs after injury, Mean ± SE) was 2.08 ± 0.81 ×10^3/μl and the “decrease in leukocyte number 24 h after the injury” value ([5]; in words, Table 1) was “did not affect”. For the same compound, the “decrease in platelet count after the injury” value ([5]; in words, Table 1) was “slightly prevented”.
